{"source": "patent US20230365558A1", "about": "“TETRAHYDROISOQUINOLINE DERIVATIVE AND USE THEREOF” (MEDSHINE DISCOVERY INC., priority 2020, published 2023)", "key": {"[1]": {"test_system": "Z-138 non-Hodgkin's lymphoma cells", "experiment": "In vitro anti-proliferation assay of Z-138 cells (CellTiter-Glo, 6 days)", "format": "cell-based, human", "settings": "read-out: IC50 (nM), in vitro anti-proliferative activity on Z-138 tumor cells", "description": "The plate was incubated at 37° C., CO2 and 100% relative humidity for 6 days. Samples were processed using Promega CellTiter-Glo Luminescent Cell Viability Assay Kit (Promega-G7571) standard method, and the luminescent signal was detected on a TECAN Spark®10M plate reader. Raw data were used to calculate the inhibition rate of the test compounds using the following equation: […]\n(§1) The inhibition rates were imported into Excel separately to calculate the inhibition rates of compounds at different concentrations, and then XLfit software was used to plot inhibition curves and calculate relevant parameters, including minimum inhibition rate, maximum inhibition rate and IC50."}, "in vivo": {"experiment": "in vivo", "settings": "for AUC / clearance / half-life / bioavailability: male, CD-1, mouse, in vivo; for Clearance rate CL / Concentration integral AUC / Half-life T1/2 / Bioavailability F: CD-1 mice", "description": "Experimental objective: To study the pharmacokinetic parameters of the compounds in CD-1 mice\nAnimal experimental design: Male CD-1 mice (28.08 to 29.01 g, 6 to 7 weeks old), purchased from Shanghai Family Planning Research Institute, n=2/group, 4 mice in total; blood collection time points (h): 0.083 (intravenous injection only), 0.25 (intragastric administration only), 0.5, 1, 2, 4, 8, 10 and 24; compound dose by tail vein injection: 1 mg/kg; single dose by intragastric administration: 5 mg/kg; intravenous and intragastric administration vehicles: 20% N,N-dimethylacetamide aqueous solution, 20% hydroxypropyl-β-cyclodextrin aqueous solution, 5% DMSO/50% PEG400/45% water for injection or 10% Solutol/30% PEG400/60% water for injection. All animals had free access to water during the experiment, fasted overnight before administration, and resumed food supply 4 hours after administration. The entire animal experiment complied with the Institutional Animal Care and Use Committee (IACUC) animal welfare.\nSample collection and storage: After administration, approximately 0.03 mL of blood was collected from the saphenous vein of the mouse at each time point into a pre-frozen commercial EDTA-K2 tube, and placed on wet ice until centrifugation. Blood samples were centrifuged at 4° C., 3,200 g for 10 min. Plasma was collected separately, transferred to a pre-labeled 96-well plate, fast frozen on dry ice, and stored at −70±10° C. until LC-MS/MS analysis.\nPre-treatment of plasma samples: 3 μL of unknown, standard curve, QC, diluted QC and single and double blank samples were taken and placed in 1.5 mL tubes, and 60 μL of internal standard solution (internal standard: Labetalol 100 ng/mL acetonitrile solution, double blank with the same volume of pure acetonitrile) was added. The samples were vortexed for at least 15 seconds, and centrifuged at 4° C., 12,000 g for 15 min. 50 μL of the supernatant was taken and placed on a clean 96-well plate, and 200 μL of 70% acetonitrile was added. The plate was vortex at 800 rpm for 10 min, and centrifuged at 4° C., 3,220 g for 5 min. 2.0 μL of the supernatant was taken for LC-MS/MS analysis. 10-fold sample dilution procedure: 2 μL of the sample was added to 18 μL of blank matrix; 2-fold sample dilution procedure: 2 μL of the sample was added to 2 μL of blank matrix. Plasma was processed in the same manner as undiluted samples. The linear range was 4.00 to 6000 nM. Plasma concentrations would be analyzed with Triple Quad 6500 Plus, and pharmacokinetic parameters would be calculated with Phoenix WinNonlin 6.3."}, "PRMT5 enzyme": {"biological_target": "PRMT5 enzyme (Homo sapiens (Human), UniProt O14744)", "sequence (O14744 whole entry)": "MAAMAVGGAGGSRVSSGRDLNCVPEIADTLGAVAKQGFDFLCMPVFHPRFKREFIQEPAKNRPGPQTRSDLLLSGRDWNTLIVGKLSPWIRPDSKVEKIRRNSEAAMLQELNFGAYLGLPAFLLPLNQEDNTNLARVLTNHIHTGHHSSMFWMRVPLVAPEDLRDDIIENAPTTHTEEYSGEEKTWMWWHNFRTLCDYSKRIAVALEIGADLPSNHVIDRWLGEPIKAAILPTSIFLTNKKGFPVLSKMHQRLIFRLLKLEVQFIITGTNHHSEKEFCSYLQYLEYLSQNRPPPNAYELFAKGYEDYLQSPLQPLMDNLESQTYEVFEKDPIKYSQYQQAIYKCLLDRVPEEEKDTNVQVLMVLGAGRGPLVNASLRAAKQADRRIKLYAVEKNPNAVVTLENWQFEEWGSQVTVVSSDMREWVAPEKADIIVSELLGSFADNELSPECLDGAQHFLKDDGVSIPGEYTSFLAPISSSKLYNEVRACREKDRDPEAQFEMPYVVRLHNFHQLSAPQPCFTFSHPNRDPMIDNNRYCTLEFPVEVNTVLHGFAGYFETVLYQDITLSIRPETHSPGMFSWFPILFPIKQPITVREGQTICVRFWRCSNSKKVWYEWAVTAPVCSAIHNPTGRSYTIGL", "sequence (Q9BQA1 whole entry partner)": "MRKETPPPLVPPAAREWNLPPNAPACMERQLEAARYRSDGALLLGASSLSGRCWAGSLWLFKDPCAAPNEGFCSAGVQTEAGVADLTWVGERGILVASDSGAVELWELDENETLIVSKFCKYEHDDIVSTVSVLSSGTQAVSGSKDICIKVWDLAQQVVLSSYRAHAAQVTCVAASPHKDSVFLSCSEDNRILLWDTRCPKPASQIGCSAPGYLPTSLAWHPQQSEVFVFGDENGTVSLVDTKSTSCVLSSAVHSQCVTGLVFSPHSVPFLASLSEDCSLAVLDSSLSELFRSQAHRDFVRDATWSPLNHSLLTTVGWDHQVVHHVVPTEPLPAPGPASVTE", "experiment": "PRMT5 enzyme inhibitory activity assay (LANCE Ultra TR-FRET)", "format": "biochemical", "description": "Experimental objective: To test the inhibitory effect of compounds on PRMT5 enzyme activity\nExperimental materials: PRMT5 enzyme\nThe plate was incubated at 25° C. for 30 min, then added with substrate, and reacted at 25° C. for 90 min. After 90 min, the detection reagent was added to the 384-well plate using PerkinElmer LANCE Ultra TR-FRET standard method to combine with the enzyme-substrate reaction product. […] Raw data were used to calculate the inhibition rate of the test compounds using the following equation: […]\nas §1"}, "[2]": {"test_system": "MDA-MB-468 human breast cancer cells", "experiment": "Anti-proliferative activity on MDA-MB-468 cells (CellTiter-Glo, 7 days)", "format": "cell-based", "settings": "read-out: IC50 (nM), in vitro anti-proliferative activity on MDA-MB-468 tumor cells", "description": "CellTiter-Glo (chemiluminescent cell viability detection reagent, purchased from Promega).\nMDA-MB-468 cells were planted in a white 384-well plate with 40 μL of cell suspension per well, which contained 1000 MDA-MB-468 cells. The cell plate was cultured in a CO2 incubator overnight. […] 78 μL of culture medium was added to a middle plate, and then 2 μL of gradient diluted compound per well was transferred to the middle plate according to the corresponding position. After being thoroughly mixed, 10 μL per well was transferred to the cell plate. […] The cell plate was cultured in a CO2 incubator for 7 days. Another cell plate was prepared, and the signal value was read on the day of administration as the maximum value (Max value in the equation below) to participate in data analysis. 10 μL of chemiluminescent cell viability detection reagent per well was added to the cell plate, and the plate was incubated at room temperature for 10 min to stabilize the luminescent signal. A multi-label analyzer was used for reading. After the incubation of the cell plate with the compound was completed, 10 μL of chemiluminescent cell viability detection reagent per well was added to the cell plate, and the plate was incubated at room temperature for 10 min to stabilize the luminescent signal. A multi-label analyzer was used for reading."}, "[3]": {"settings": "injection administration (1 mg/kg)"}}, "note": "Read-outs that look alike come from different tables or passages of the source."}
{"smiles": "O=C(NC[C@H](O)CN1CCc2ccccc2C1)c1cc2c(cc1F)OC1(CC1)C(=O)N2", "note": "[Compound 32]", "values": [{"measurement": "IC50", "setting": "[1]; Homo sapiens, Z-138, 144 h", "result": 19, "unit": "nM"}]}
{"smiles": "CC(C)OC1CC2(C1)Oc1ccc(C(=O)NC[C@H](O)CN3CCc4ccccc4C3)cc1NC2=O", "note": "(stereo partly drawn) [Compound 26]", "values": [{"measurement": "IC50", "setting": "[1]; Homo sapiens, Z-138, 144 h", "result": 22, "unit": "nM"}]}
{"smiles": "O=C1CC2(C1)Oc1ccc(C(=O)NC[C@H](O)CN3CCc4ccccc4C3)cc1NC2=O", "note": "[Compound 27]", "values": [{"measurement": "IC50", "setting": "[1]; Homo sapiens, Z-138, 144 h", "result": 4, "unit": "nM"}]}
{"smiles": "O=C(NC[C@H](O)CN1CCc2ccccc2C1)c1ccc2c(c1)NC(=O)C1(CC(F)(F)C1)O2", "note": "[Compound 28]", "values": [{"measurement": "IC50", "setting": "[1]; Homo sapiens, Z-138, 144 h", "result": 10, "unit": "nM"}]}
{"smiles": "O=C(NC[C@H](O)CN1CCc2ccccc2C1)c1ccc2c(c1)NC(=O)C1(CN(CC(F)(F)F)C1)O2", "note": "[Compound 10]", "values": [{"measurement": "IC50", "setting": "[1]; Homo sapiens, Z-138, 144 h", "result": 23, "unit": "nM"}, {"measurement": "AUC", "setting": "in vivo; 1 mg/kg", "result": 0.785, "unit": "µM·h"}, {"measurement": "clearance", "setting": "in vivo; 1 mg/kg", "result": 42.1, "unit": "mL/min/kg"}, {"measurement": "half-life", "setting": "in vivo; 1 mg/kg", "result": 33, "unit": "min"}, {"measurement": "AUC", "setting": "in vivo; po, 5 mg/kg", "result": 0.572, "unit": "µM·h"}, {"measurement": "bioavailability", "setting": "in vivo; po, 5 mg/kg", "result": 14.6, "unit": "%"}]}
{"smiles": "O=C(NC[C@H](O)CN1CCc2ccccc2C1)c1cnc2c(c1)NC(=O)C1(CCC1)O2", "note": "[Compound 6]", "values": [{"measurement": "IC50", "setting": "[1]", "result": 6, "unit": "nM"}, {"measurement": "Clearance rate CL", "setting": "in vivo; [3]", "result": 42.1, "unit": "mL/min/kg"}, {"measurement": "Concentration integral AUC", "setting": "in vivo; [3]", "result": 0.944, "unit": "µM·h"}, {"measurement": "Half-life T1/2", "setting": "in vivo; [3]", "result": 14.4, "unit": "min"}, {"measurement": "Bioavailability F", "setting": "in vivo; oral administration (5 mg/kg)", "result": 16.4, "unit": "%"}, {"measurement": "Concentration integral AUC", "setting": "in vivo; oral administration (5 mg/kg)", "result": 0.773, "unit": "µM·h"}]}
{"smiles": "O=C(NC[C@H](O)CN1CCc2ccccc2C1)c1cnc2c(c1)NC(=O)C1(CC(F)(F)C1)O2", "note": "[Compound 29]", "values": [{"measurement": "IC50", "setting": "[1]", "result": 6, "unit": "nM"}, {"measurement": "IC50", "setting": "PRMT5 enzyme", "result": 16, "unit": "nM"}, {"measurement": "Clearance rate CL", "setting": "in vivo; [3]", "result": 37.9, "unit": "mL/min/kg"}, {"measurement": "Concentration integral AUC", "setting": "in vivo; [3]", "result": 0.981, "unit": "µM·h"}, {"measurement": "Half-life T1/2", "setting": "in vivo; [3]", "result": 35.4, "unit": "min"}, {"measurement": "Bioavailability F", "setting": "in vivo; oral administration (5 mg/kg)", "result": 8.99, "unit": "%"}, {"measurement": "Concentration integral AUC", "setting": "in vivo; oral administration (5 mg/kg)", "result": 0.441, "unit": "µM·h"}]}
{"smiles": "O=C(NC[C@H](O)CN1CCc2ccccc2C1)c1ccc2c(c1)NC(=O)C1(CS(=O)(=O)C1)O2", "note": "[Compound 37]", "values": [{"measurement": "IC50", "setting": "[1]", "result": 8, "unit": "nM"}, {"measurement": "IC50", "setting": "PRMT5 enzyme", "result": 8, "unit": "nM"}]}
{"smiles": "COCCOC1CC2(C1)Oc1ccc(C(=O)NC[C@H](O)CN3CCc4ccccc4C3)cc1NC2=O", "note": "(stereo partly drawn) [Compound 23]", "values": [{"measurement": "IC50", "setting": "[1]; Homo sapiens, Z-138, 144 h", "result": 23, "unit": "nM"}, {"measurement": "IC50", "setting": "PRMT5 enzyme", "result": 18, "unit": "nM"}]}
{"smiles": "O=C(NC[C@H](O)CN1CCc2ccccc2C1)c1ccc2c(c1)NC(=O)C1(CSC1)O2", "note": "[Compound 38]", "values": [{"measurement": "IC50", "setting": "[1]; Homo sapiens, Z-138, 144 h", "result": 18, "unit": "nM"}]}
{"smiles": "O=C(NC[C@H](O)CN1CCc2ccccc2C1)c1cnc2c(c1)NC(=O)C1(CC1)O2", "note": "[Compound 8]", "values": [{"measurement": "IC50", "setting": "[1]; Homo sapiens, Z-138, 144 h", "result": 10, "unit": "nM"}, {"measurement": "IC50", "setting": "[2]; Homo sapiens, 168 h", "result": 12, "unit": "nM"}, {"measurement": "IC50", "setting": "PRMT5 enzyme", "result": 15, "unit": "nM"}, {"measurement": "AUC", "setting": "in vivo; iv, 1 mg/kg", "result": 0.875, "unit": "µM·h"}, {"measurement": "clearance", "setting": "in vivo; iv, 1 mg/kg", "result": 53.3, "unit": "mL/min/kg"}, {"measurement": "half-life", "setting": "in vivo; iv, 1 mg/kg", "result": 54.6, "unit": "min"}, {"measurement": "AUC", "setting": "in vivo; po, 5 mg/kg", "result": 1.03, "unit": "µM·h"}, {"measurement": "bioavailability", "setting": "in vivo; po, 5 mg/kg", "result": 24.5, "unit": "%"}]}
{"smiles": "COCCOC1CC2(C1)Oc1ccc(C(=O)NC[C@H](O)CN3CCc4ccccc4C3)cc1NC2=O", "note": "(stereo partly drawn) [Compound 24]", "values": [{"measurement": "IC50", "setting": "[1]", "result": 22, "unit": "nM"}, {"measurement": "IC50", "setting": "PRMT5 enzyme", "result": 15, "unit": "nM"}]}
{"smiles": "O=C(NC[C@H](O)CN1CCc2ccccc2C1)c1ccc2c(c1)NC(=O)[C@]1(CCOC1)O2", "note": "[Compound 36]", "values": [{"measurement": "IC50", "setting": "[1]", "result": 7, "unit": "nM"}, {"measurement": "IC50", "setting": "PRMT5 enzyme", "result": 7, "unit": "nM"}, {"measurement": "Clearance rate CL", "setting": "in vivo; [3]", "result": 66.3, "unit": "mL/min/kg"}, {"measurement": "Concentration integral AUC", "setting": "in vivo; [3]", "result": 0.576, "unit": "µM·h"}, {"measurement": "Half-life T1/2", "setting": "in vivo; [3]", "result": 13.2, "unit": "min"}, {"measurement": "Bioavailability F", "setting": "in vivo; oral administration (5 mg/kg)", "result": 37.9, "unit": "%"}, {"measurement": "Concentration integral AUC", "setting": "in vivo; oral administration (5 mg/kg)", "result": 1.092, "unit": "µM·h"}]}
{"smiles": "O=C(NC[C@H](O)CN1CCc2ccccc2C1)c1ccc2c(c1)NC(=O)[C@H]1C[C@@H]21", "note": "[Compound 49b]", "values": [{"measurement": "IC50", "setting": "[1]", "result": 13.1, "unit": "nM"}, {"measurement": "IC50", "setting": "[2]", "result": 4.2, "unit": "nM"}, {"measurement": "IC50", "setting": "PRMT5 enzyme", "result": 26.2, "unit": "nM"}]}
